The target in one series is T1, PfkA (Bacillus subtilis, UniProt O34529).
T1 construct: full-length, N-terminal His6-Gly3 tag (from primer), recombinant in E. coli BW25113, pTrc99KK, Ni-NTA
Nature of the series: coupled spectrophotometric assay, NADH at […] nm. The series is classed as biochemical.

Substrate in the series “purified protein”: CC(=O)C(=O)O
Nature of the series: purified protein. The note with it: 1 mM ATP, 0.05 mM acetyl-CoA, 15 mM KHCO3, 7 mM MgSO4, 135 mM TEA pH 8, room temperature, pyruvate 0.04-5.0 mM. Format: biochemical, Bacillus subtilis.

A word on the Ki: it is the dissociation constant of the complex between target and ligand, obtained from inhibition or displacement. Low readings indicate higher affinity, high ones lower affinity. For orientation: Km means the concentration of substrate that gives half-maximal velocity.

T1 sequence (O34529 2-319): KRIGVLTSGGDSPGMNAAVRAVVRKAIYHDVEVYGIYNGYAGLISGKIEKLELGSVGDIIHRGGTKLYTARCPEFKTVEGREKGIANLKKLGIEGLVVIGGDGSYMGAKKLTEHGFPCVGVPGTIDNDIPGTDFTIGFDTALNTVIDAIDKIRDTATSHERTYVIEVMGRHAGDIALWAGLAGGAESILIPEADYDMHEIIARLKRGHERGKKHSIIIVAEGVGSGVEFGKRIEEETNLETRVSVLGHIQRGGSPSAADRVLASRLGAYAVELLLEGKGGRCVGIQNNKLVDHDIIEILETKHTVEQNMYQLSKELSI

On PfkA, `C=C(OP(=O)(O)O)C(=O)O` [PEP, phosphoenolpyruvate] gave a Ki of 40 µM.

B1: PycA (Bacillus subtilis subsp. subtilis str. 168) (protein)
chain: SQQSIQKVLVANRGEIAIRIFRACTELNIRTVAVYSKEDSGSYHRYKADEAYLVGEGKKPIDAYLDIEGIIDIAKRNKVDAIHPGYGFLSENIHFARRCEEEGIVFIGPKSEHLDMFGDKVKAREQAEKAGIPVIPGSDGPAETLEAVEQFGQANGYPIIIKASLGGGGRGMRIVRSESEVKEAYERAKSEAKAAFGNDEVYVEKLIENPKHIEVQVIGDKQGNVVHLFERDCSVQRRHQKVIEVAPSVSLSPELRDQICEAAVALAKNVNYINAGTVEFLVANNEFYFIEVNPRVQVEHTITEMITGVDIVQTQILVAQGHSLHSKKVNIPEQKDIFTIGYAIQSRVTTEDPQNDFMPDTGKIMAYRSGGGFGVRLDTGNSFQGAVITPYYDSLLVKLSTWALTFEQAAAKMVRNLQEFRIRGIKTNIPFLENVAKHEKFLTGQYDTSFIDTTPELFNFPKQKDRGTKMLTYIGNVTVNGFPGIGKKEKPAFDKPLGVKVDVDQQPARGTKQILDEKGAEGLANWVKEQKSVLLTDTTFRDAHQSLLATRIRSHDLKKIANPTAALWPELFSMEMWGGATFDVAYRFLKEDPWKRLEDLRKEVPNTLFQMLLRSSNAVGYTNYPDNVIKEFVKQSAQSGIDVFRIFDSLNWVKGMTLAIDAVRDTGKVAEAAICYTGDILDKNRTKYDLAYYTSMAKELEAAGAHILGIKDMAGLLKPQAAYELVSALKETIDIPVHLHTHDTSGNGIYMYAKAVEAGVDIIDVAVSSMAGLTSQPSASGFYHAMEGNDRRPEMNVQGVELLSQYWESVRKYYSEFESGMKSPHTEIYEHEMPGGQYSNLQQQAKGVGLGDRWNEVKEMYRRVNDMFGDIVKVTPSSKVVGDMALYMVQNNLTEKDVYEKGESLDFPDSVVELFKGNIGQPHGGFPEKLQKLILKGQEPITVRPGELLEPVSFEAIKQEFKEQHNLEISDQDAVAYALYPKVFTDYVKTTESYGDISVLDTPTFFYGMTLGEEIEVEIERGKTLIVKLISIGEPQPDATRVVYFELNGQPREVVIKDESIKSSVQERLKADRTNPSHIAASMPGTVIKVLAEAGTKVNKGDHLMINEAMKMETTVQAPFSGTIKQVHVKNGEPIQTGDLLLEIEKA
notes: full-length, N-terminal His6-Gly3 tag (from primer), recombinant in E. coli BW25113, pTrc99KK, Ni-NTA
Regarding B1, the Km in “purified protein” turned out to be 100 µM.

The values are drawn from PMC6079084, “Capacity for instantaneous catabolism of preferred and non-preferred carbon sources in Escherichia coli and Bacillus subtilis” (Scientific Reports, 2018).
